Assay in all cases: NCI-60 cell line screen, 48 h
Assay [1] has as its system 786-0 renal.
Assay [2] relates to A498 renal.
For assay [3], the system named is LOX IMVI melanoma.
The test system of assay [4] is MDA-N.
For assay [5], the system named is NCI-H522 lung.
For assay [6], the system named is SK-MEL-5 melanoma.
The test system of assay [7] is SNB-19 CNS.
Assay [8] concerns SR leukemia.
The subject of assay [9] is T-47D breast.
Assay [10] concerns MALME-3M melanoma.
Assay [11] concerns OVCAR-4 ovarian.

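Five concentrations, 48 hours, 96-well plates. TGI: total growth inhibition.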

With `COc1ccc(C(=O)CC(c2ccccc2)[C@H]2C(c3ccc(OC)cc3)=Nc3c(nc(SC)n(C)c3=O)NC2c2ccccc2)cc1` (stereo partly drawn), the TGI in assay [1], in assay [2], in assay [3], in [4], in assay [5] and in assay [6] was greater than 100 µM throughout. Besides, the TGI in [7], in [8] and in [9] was greater than 100 µM each time.
With `O=c1c(-c2ccccc2)c(SCCO)n(-c2ccccc2)c(=S)n1-c1ccccc1`, the TGI in assay [1], in assay [3], in assay [10], in assay [4], in assay [5] and in assay [11] was greater than 100 µM in each case. The TGI in assay [6], in assay [7] and in assay [8] was greater than 100 µM each time.
As to `COc1ccc(Nc2ccc3ccccc3c2-c2c(O)ccc3ccccc23)cc1`, the TGI in [1] was 32.2 µM; in assay [3], 37.7 µM; in assay [4], 29.4 µM; in [5] it was 32.8 µM; in [11], 41.9 µM; in [6] it was 32.6 µM. Moreover, the TGI in [7] is 37.2 µM; in [8], 30.6 µM; in assay [9] it was 34 µM.
With `CC(C)(C)CC(C)(C)c1cc(O)c(O)c(CN2CCCCC2)c1`, the TGI in [1] turned out to be 26.7 µM; in [2] it was 27.3 µM; in assay [3], 24.3 µM; in assay [10], 25.9 µM; in assay [4], 28.3 µM; in assay [5], 23.5 µM. Also, the TGI in assay [11] stood at 42 µM; in [6], 28.9 µM; in assay [7], 28.8 µM; in assay [9], 33.9 µM.
Consider `Nc1nc(Cl)cc(NC23CC4CC(CC(C4)C2)C3)n1`, for which the TGI in assay [1], in assay [2], in assay [10], in [4], in [5] and in [11] was greater than 100 µM in each case. Also, the TGI in [7], in assay [8] and in assay [9] was greater than 100 µM each time.
In the case of `C=C=C(CC(CC(=C)Br)(C(=O)OC)C(=O)OC)S(=O)(=O)c1ccccc1`, the TGI amounted to 2.36 µM in [1]; 14.7 µM in [2]; 1.7 µM in assay [3]; 4.11 µM in assay [10]; 8.58 µM in assay [4]; 1.76 µM in assay [5]. The TGI in assay [11] was 21.2 µM; in assay [6], 10.3 µM; in assay [7], 24.9 µM; in assay [9], greater than 100 µM.
`c1ccc(/C(=N/Nc2ccncn2)c2ccccn2)cc1`: the TGI in assay [1] was greater than 100 µM; in assay [4], greater than 100 µM; in assay [5], 4.14 µM; in [11], greater than 100 µM; in assay [6], greater than 100 µM; in assay [7], greater than 100 µM. In assay [8], this compound gave a TGI greater than 100 µM.
Turning to `COc1ccc2cc(CNCCCCCCNCc3ccc4cc(OC)ccc4c3)ccc2c1`, the TGI in assay [1] came out at 2.48 µM; in [2], 2.99 µM; in assay [3] it was 0.325 µM; in [10], 2.62 µM; in assay [4], 0.36 µM; in assay [5] it was 1.76 µM. Besides, the TGI in assay [6] was 2.67 µM; in assay [7], 1.87 µM; in assay [9], 2.07 µM.
As for `CC(C)(C)OC(=O)NCC(CNC(=O)OC(C)(C)C)c1nc(C(N)=O)cs1`, the TGI in assay [1], in assay [2], in [3], in [10], in [4] and in assay [11] was greater than 100 µM in each case. The TGI in [6], in [7] and in assay [8] was greater than 100 µM throughout.
Turning to `Nc1ccc(S(=O)(=O)Nc2nc3ccccc3nc2N2CCCCCC2)cc1`, the TGI was greater than 100 µM in assay [1]; 33.5 µM in [3]; 85.9 µM in [10]; greater than 100 µM in assay [4]; greater than 100 µM in assay [5]; 50.9 µM in assay [11]. Besides, the TGI in assay [6] was 30.1 µM; in assay [7] it was greater than 100 µM; in assay [8], greater than 100 µM; in [9], greater than 100 µM.
On to `CCOC(=O)c1cc2c([N+](=O)[O-])c(N)ccc2s1`, for which the TGI in assay [1], in assay [2], in assay [3], in assay [10], in assay [4] and in assay [5] was greater than 100 µM each time. The TGI in [11], in assay [6], in assay [7] and in assay [9] was greater than 100 µM throughout.
Turning to `NCC(O)CSCc1ccc(Cl)cc1` (stereo not drawn), the TGI in assay [1], in assay [2], in [3], in assay [10], in assay [4] and in assay [5] was greater than 100 µM in each case. Besides, the TGI in assay [11], in assay [6], in assay [7] and in assay [9] was greater than 100 µM in each case.
On to `O=C1CC(=O)n2cnc3cccc(c32)N1`, for which the TGI in assay [1], in [2], in assay [10], in [4], in assay [11] and in assay [6] was greater than 100 µM throughout. In addition, the TGI in assay [7], in assay [8] and in [9] was greater than 100 µM throughout.
For the compound `C=CCC1C(O[Si](C)(C)C(C)(C)C)C(CO[Si](C)(C)C(C)(C)C)OC1n1ccc(=O)[nH]c1=O` (stereo not drawn), the TGI in [1] was determined as 2.44 µM; in [2], 3.68 µM; in [3], 2.25 µM; in assay [4], 2.89 µM; in assay [6], 2.91 µM; in assay [7], 3.06 µM. In addition, the TGI in assay [8] was found to be 18.4 µM; in assay [9], 4.37 µM.

The values above are taken from PubChem BioAssay (NCI).
